Experimental data taken from PMC6173696, “Structural properties of a haemophore facilitate targeted elimination of the pathogen Porphyromonas gingivalis” (Nature Communications, 2018).

Experiments:
[1] = tested on: H413 gingival epithelial cells; format: cell-based, Human; conditions: concentrations above 0.5 µM; 1 h or 2 h
Experimental: As P8 could penetrate epithelial cells, the cell membrane integrity was tested using lactate dehydrogenase (LDH) assay. LDH is readily released following cellular membrane damage. As per manufacturer’s instructions (Thermo Fisher Scientific, Australia), H413 cells were treated with P8 at various concentrations and incubated for 1 h and 2 h, respectively. The drug solubilisation medium DMSO and metronidazole were used as controls. The positive control provided by the manufacturer was used to determine the maximal LDH release and the ratio of corrected values obtained for the experimental groups relative to maximum LDH release represented cytotoxicity. The fluorescence intensity was recorded on SpetraMax® i3 (Molecular Devices, Australia).
Supplementary Figure 23. (A) UV-vis spectra of 10 µM P8 alone and in the presence of 10 µM HusA. (B) Stability assay of P8 in the presence of gingival epithelial cell lysate. The intensity of P8 fluorescence was applied to monitor the stability of P8 in the presence of cell lysate. (C) Confocal microscope analysis of the progressive uptake of P8 by H413 gingival epithelial cell over a 2 h period.
The fluorescent P8 is shown in red and the nuclei stained by DAPI are shown in blue. Scale bar, 25 µm. (D) Lactate dehydrogenase cytotoxicity assay of H413 gingival epithelial cells treated with P8 at various concentrations for 1 h or 2 h incubation. […]

[2] = target: T1, HusA W130N (Porphyromonas gingivalis, UniProt Q7MSY3, W130N); test: Tryptophan fluorescence quenching assay, HusA mutant W130N; format: binding
T1 sequence (Q7MSY3 24-218 W130N): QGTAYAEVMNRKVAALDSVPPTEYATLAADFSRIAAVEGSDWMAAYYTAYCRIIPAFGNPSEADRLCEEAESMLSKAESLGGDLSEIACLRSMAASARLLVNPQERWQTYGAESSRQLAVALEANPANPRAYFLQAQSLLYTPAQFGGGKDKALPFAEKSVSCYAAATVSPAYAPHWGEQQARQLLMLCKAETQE

[3] = tested on: HusA; test: Acid-alkaline transition of UV-vis spectra, haemin bound to HusA and Y164A/F mutants; format: physicochemical, Porphyromonas gingivalis; conditions: haemin bound to HusA and the Y164A/F mutants
Experimental: Spectra were recorded in 0.1 M NaCl with 0.1 M of the following buffers: citrate, pH 5.0; BisTris-HCl, pH 5.5; BisTris-HCl, pH 5.75: BisTris-HCl, pH 6.0; sodium phosphate, pH 6.5; sodium phosphate, pH 7.0; sodium phosphate, pH 7.5; Tris-HCl, pH 8.0; sodium borate, pH 9.0; sodium borate/NaOH, pH 9.8; sodium carbonate, pH 10.0 (not all titration points were collected for each protein)

[4] = target: T2, p22HBP (Mus musculus, UniProt Q9R257); test: Acid-alkaline transition of UV-vis spectra, haemin bound to p22HBP; format: physicochemical; conditions: haemin bound to murine p22HBP
T2 sequence (Q9R257 1-190): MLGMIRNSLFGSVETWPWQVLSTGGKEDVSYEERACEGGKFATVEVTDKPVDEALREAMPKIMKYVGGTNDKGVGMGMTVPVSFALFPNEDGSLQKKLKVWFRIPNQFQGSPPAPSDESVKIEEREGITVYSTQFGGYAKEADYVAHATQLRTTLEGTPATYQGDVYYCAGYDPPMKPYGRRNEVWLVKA
Experimental: (§1) Supplementary Figure 16. Acid-alkaline transition in UV-vis spectra of various haem binding proteins. (Top) UV-visible spectra (units of wavelength are nm) used to generate the pH titration curves shown in Figure 2h and in the bottom panel. (Bottom) Acid-alkaline titration of 5 µM haemin in presence of 7 µM IsdH, 5 µM IsdB, 7 µM IsdH(Y642A) and 7 µM p22HBP. All proteins are in holo form. See Fig 2h legend for buffer conditions. Absorbance A600–A650 values are plotted except for IsdH and IsdB, for which A630–A600 is plotted (to avoid negative values). […]

[5] = target: T3, IsdH(Y642A) (Staphylococcus aureus, UniProt Q931P4, Y642A); format: physicochemical; conditions: haemin bound to IsdH (Y642A)
T3 sequence (Q931P4 41-891 Y642A): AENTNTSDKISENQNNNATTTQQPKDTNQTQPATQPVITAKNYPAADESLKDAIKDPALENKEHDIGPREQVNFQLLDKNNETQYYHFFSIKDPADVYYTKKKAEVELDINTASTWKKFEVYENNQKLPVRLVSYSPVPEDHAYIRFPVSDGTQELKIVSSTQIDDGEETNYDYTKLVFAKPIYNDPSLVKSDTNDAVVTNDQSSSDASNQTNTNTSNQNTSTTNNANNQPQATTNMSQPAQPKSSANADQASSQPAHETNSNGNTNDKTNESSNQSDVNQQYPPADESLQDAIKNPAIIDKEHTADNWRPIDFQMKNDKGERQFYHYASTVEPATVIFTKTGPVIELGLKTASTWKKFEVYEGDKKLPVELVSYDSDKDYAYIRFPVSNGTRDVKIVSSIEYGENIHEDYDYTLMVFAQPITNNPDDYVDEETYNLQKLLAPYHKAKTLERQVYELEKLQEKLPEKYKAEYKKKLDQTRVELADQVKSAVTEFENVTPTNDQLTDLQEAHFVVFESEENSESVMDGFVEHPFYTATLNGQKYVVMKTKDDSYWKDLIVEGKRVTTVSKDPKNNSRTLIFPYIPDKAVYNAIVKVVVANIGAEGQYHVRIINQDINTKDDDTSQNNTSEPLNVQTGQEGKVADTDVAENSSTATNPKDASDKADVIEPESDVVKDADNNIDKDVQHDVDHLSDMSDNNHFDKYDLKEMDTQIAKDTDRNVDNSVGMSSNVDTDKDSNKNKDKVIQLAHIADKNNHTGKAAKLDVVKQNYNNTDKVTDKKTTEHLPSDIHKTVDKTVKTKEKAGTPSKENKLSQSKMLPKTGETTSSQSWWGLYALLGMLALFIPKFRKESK
Experimental: as §1

For `CC1=Cc2cc3[nH]c(cc4nc(cc5[nH]c(cc1n2)cc5C)C(C)=C4CCC(=O)N[C@@H](CCCCNC(=O)OC(C)(C)C)C(=O)NCCn1c([N+](=O)[O-])cnc1C)c(CCC(=O)O)c3C` [P8], the “cell toxicity (LDH release)” value [1] was “does not induce cell toxicity”.

In the case of `C=CC1=C(C)c2cc3[nH]c(cc4nc(cc5[nH]c(cc1n2)c(C)c5CCC(=O)O)C(CCC(=O)O)=C4C)c(C)c3C=C.[Fe+3]` [haemin], the “reduction of haemin affinity compared to wild-type” value [2] is reported as > 50%, the “pKa of acid-alkaline transition” value [3] is reported as 6.1–6.5 and the “pKa of acid-alkaline transition” value ([3]; listed as haem) is reported as 6-6.5. The “pKa of acid-alkaline transition” value [4] was 6.2 and the “pKa of acid-alkaline transition” value [5] was 5.9.
